Structures are written as SMILES.

The test concerns secretion of cytokine IL-8 into the human monocyte cell line THP-1. Kind of test: inhibition of LPS-triggered IL-8 secretion in THP-1 cells (ELISA of supernatant). In kind it is cell-based. As for the experimental part: As an essential, molecular mechanism for the anti-inflammatory action of glucocorticoids, the GR-mediated inhibition of the transcription of cytokines, adhesion molecules, enzymes and other pro-inflammatory factors is considered. This inhibition is produced by an interaction of the GR with other transcription factors, e.g., AP-1 and NF-kappa-B (for a survey, see Cato, A. C. B., and Wade, E., BioEssays 18, 371-378, 1996).
The concentration of the cytokines was determined in the supernatant by means of commercially available ELISA kits.
In general terms: ELISA stands for enzyme-linked immunosorbent assay.

Take `COCC(O)(C(Nc1cc(F)cc2c1ccc(=O)n2-c1ccc(F)nc1)c1ccc(OC)c(F)c1Cl)C(F)(F)F` (centres unmarked) [Example 2, 5-{[1-(2-Chloro-3-fluoro-4-methoxyphenyl)-3,3,3-trifluoro-2-hydroxy-2-(methoxymethyl)propyl]amino}-7-fluoro-1-(6-fluoropyridin-3-yl)-1H-quinolin-2-one]: the IC50 (as a rule, the point on the concentration scale where inhibition reaches its midpoint) (Homo sapiens, inhibition of LPS-triggered IL-8 secretion, THP-1 cells, read-out: IC50(IL8)) was 0.31 nM. Also, the efficacy (IL-8 inhibition, in comparison with dexamethasone as reference) was found to be 107%.

Values taken from EP2149558A1, “5-[(3,3,3-Trifluoro-2-hydroxy-1-arylpropyl)amino-1-arylquinolin-2-ones, a process for their production and their use as anti-inflammatory agents” (Bayer Schering Pharma Aktiengesellschaft, priority 2008, dated 2010).
